# Experimental data: US7553871B2, “Fatty acid antimicrobial” (GEA WestfaliaSurge, Inc., priority 1996, dated 2009)
# How the values were obtained:
# Format in all cases: cell-based
# Escherichia coli [1] = assay: Excised dairy cow teat dip test (Example 2); conditions: Escherichia coli on excised cow teats; dipped, drained ten minutes; log mean CFU/ml vs negative control
# Method: (§1) Another set of in vitro tests were run on Staphylococcus aureus, Escherichia coli, and Streptococcus uberis. A culture of the microorganism was first prepared according to the following procedure. Six to ten milliliters of trypticase soy broth was inoculated with the organism under consideration from a frozen or refrigerated stock. After incubation for five to seven hours at 37° C., the culture was transferred to a flask containing 200 milliliters of trypticase soy broth. The culture in the flask was then incubated on a gyratory shaker at approximately 1500 rpm overnight at 37° C. The next day, the culture in the flask is washed once in PBS or 0.1% protease peptone, and stored at approximately 4° C. until required.
# (§2) The tests were run using dairy cow teats which had been obtained from a slaughter house. The teats were cut off at their connection to the udder, cleaned, and all hair was removed by using an open flame. The teats selected for the testing were screened for lesions, cuts, scars or other abnormalities. The teats were stored until needed in plastic bags in ice at a temperature below freezing. […]
# (§3) Countable dilutions were plated on appropriate media, and incubated from 24 to 48 hours at 37° C. The colonies were counted macroscopically with the aid of fluorescent light. Non-typical colonies were not counted. […]
# Staphylococcus aureus [2] = assay: Excised dairy cow teat dip test (Example 2); conditions: Staphylococcus aureus on excised cow teats; dipped, drained ten minutes; log mean CFU/ml vs negative control
# Method: as §1, §2, §3
# Escherichia coli [3] = assay: In vitro suspension kill test, 1 minute contact at 37° C., survivors plated (Examples 1, 5); conditions: 1 minute at 37° C.
# Method: (§4) A set of in vitro tests was run on Staphylococcus aureus, Escherichia coli, Streptococcus agalactiae, Streptococcus uberis, Staphylococcus epidermidis, and Pseudomonas aeruginosa. A culture of the microorganism was first prepared according to the following procedure. Six to ten milliliters of trypticase soy broth was inoculated with the organism under consideration from a frozen or refrigerated stock. After incubation for five to seven hours at 37° C., the culture was transferred to a flask containing trypticase soy broth. The culture in the flask was then incubated on a gyratory shaker at approximately 1500 rpm overnight at 37° C. The next day, the culture in the flask is washed once in phosphate buffered saline solution (PBS) and stored at approximately 4° C. until needed. […]
# (§5) The surviving bacteria suspended in quencher solution were then diluted with PBS and plated on appropriate media, for example, MacConkey for Escherichia coli, Staph 110 for Staphylococcus, and trypticase soy agar with 6% Sheep's blood for Streptococcus. The plates were incubated 24 to 48 hours at 37° C. and counted. The surviving organisms were expressed as colony forming units (CFU)/ml, and compared to the negative control as percent survival. […]
# [4] = test system: Staphylococcus epidermidis; assay: In vitro suspension kill test, 1 minute contact at 37° C., survivors plated (Example 1); conditions: diluted with organic load (1:1 with whole milk)
# Method: (§6) A set of in vitro tests was run on Staphylococcus aureus, Escherichia coli, Streptococcus agalactiae, Streptococcus uberis, Staphylococcus epidermidis, and Pseudomonas aeruginosa. A culture of the microorganism was first prepared according to the following procedure. Six to ten milliliters of trypticase soy broth was inoculated with the organism under consideration from a frozen or refrigerated stock. After incubation for five to seven hours at 37° C., the culture was transferred to a flask containing trypticase soy broth. The culture in the flask was then incubated on a gyratory shaker at approximately 1500 rpm overnight at 37° C. The next day, the culture in the flask is washed once in phosphate buffered saline solution (PBS) and stored at approximately 4° C. until needed.
# (§7) To test a specific antimicrobial's efficacy, ten milliliters of the culture was transferred to a 15 milliliter centrifuge tube and centrifuged at approximately 600 to 700 g for approximately five to ten minutes. After decanting the supernatant, ten milliliters of the antimicrobial (or PBS in the negative, or untreated, control) was added, and the centrifuge tube vortexed to suspend the bacteria. In those tests involving “organic loads”, a 1:1 dilution of the antimicrobial with whole milk was made before addition to the cultured microorganism to simulate conditions the product may have to experience in a real life environment, such as on a cow's teat.
# (§8) The tube was then placed in a 37° C. water bath for 1 minute. The tube was centrifuged again at approximately 600 to 700 g for approximately five to ten minutes, and the supernatant decanted. The remaining precipitate was then suspended in a quencher solution containing letheen broth, 1% sodium thiosulfate and 0.2 mM CaCl2. The tube was centrifuged at approximately 600 to 700 g for approximately five to ten minutes, decanted and washed a second time in the quencher solution.
# (§9) The surviving bacteria suspended in quencher solution were then diluted with PBS and plated on appropriate media, for example, MacConkey for Escherichia coli, Staph 110 for Staphylococcus, and trypticase soy agar with 6% Sheep's blood for Streptococcus. The plates were incubated 24 to 48 hours at 37° C. and counted. The surviving organisms were expressed as colony forming units (CFU)/ml, and compared to the negative control as percent survival.
# Pseudomonas aeruginosa = assay: as above; conditions: diluted with organic load (1:1 with whole milk)
# Method: as §6, §7, §8, §9
# Streptococcus uberis = assay: as above; conditions: diluted with organic load (1:1 with whole milk)
# Method: as §6, §7, §8, §9
# Streptococcus agalactiae = assay: as above; conditions: diluted with organic load (1:1 with whole milk)
# Method: as §6, §7, §8, §9
# Staphylococcus aureus [5] = assay: In vitro suspension kill test, 1 minute contact at 37° C., survivors plated (Examples 1, 4, 5); conditions: 1 minute at 37° C.
# Method: as §4, §5
# [6] = diluted with organic load (1:1 with whole milk)
compound,measurement,setting,value
[O][Cl+][O-] [chlorine dioxide],Percent Log Reduction,Escherichia coli [1],22%
same,Percent Log Reduction,Staphylococcus aureus [2],33.90%
same,Percent Survival,Escherichia coli [3]; [6],0%
same,Percent Survival,Escherichia coli [3]; undiluted antimicrobial,0%
same,Percent Survival,[4],5%
same,Percent Survival,Pseudomonas aeruginosa,0%
same,Percent Survival,Streptococcus uberis,5.19%
same,Percent Survival,Streptococcus agalactiae,0%
same,Percent Survival,Staphylococcus aureus [5]; [6],16.96%
same,Percent Survival,"Staphylococcus aureus [5]; undiluted antimicrobial, CFU/ml compared to negative control",0%
